Values after ≈ are worked out from the molar mass of the structure shown.
Key:
[1] = test system: Mycobacterium tuberculosis; assay: Antituberculosis activity against Mycobacterium tuberculosis H37Rv under anaerobic conditions by fluorescence based low-oxygen-recovery assay; format: functional
[2] = test system: Mycobacterium tuberculosis; assay: Antituberculosis activity against Mycobacterium tuberculosis H37Rv under aerobic conditions by microplate alamar blue assay; format: functional

Structure (SMILES): O=[N+]([O-])c1cn2c(n1)OC[C@@H](OCCOc1ccc(-c3ccc(C(F)(F)F)nc3)cn1)C2
- MIC [1]: 10 µM (≈ 4.51 µg/mL)
- MIC [2]: 0.22 µM (≈ 0.0993 µg/mL)

Structure (SMILES): O=[N+]([O-])c1cn2c(n1)OC[C@@H](OCCCc1ccc(-c3ccc(C(F)(F)F)cn3)cc1)C2
- MIC [1]: 3 µM (≈ 1.35 µg/mL)
- MIC [2]: 0.055 µM (≈ 0.0247 µg/mL)

Structure (SMILES): O=[N+]([O-])c1cn2c(n1)OC[C@@H](Oc1ccc(-c3ccc(C(F)(F)F)cc3)cc1)C2
- MIC [1]: > 128 µM
- MIC [2]: 0.39 µM (≈ 0.158 µg/mL)

Structure (SMILES): O=[N+]([O-])c1cn2c(n1)OC[C@@H](Oc1ccc(-c3ccc(F)cc3)cn1)C2
- MIC [1]: 15 µM (≈ 5.34 µg/mL)
- MIC [2]: 0.37 µM (≈ 0.132 µg/mL)

Structure (SMILES): O=[N+]([O-])c1cn2c(n1)OC[C@@H](OCC#Cc1ccc(-c3ccc(OC(F)F)cc3)nc1)C2
- MIC [1]: 0.61 µM (≈ 0.27 µg/mL)
- MIC [2]: 0.08 µM (≈ 0.0354 µg/mL)

Structure (SMILES): O=[N+]([O-])c1cn2c(n1)OC[C@@H](Oc1cccc(-c3ccc(F)cc3)n1)C2
- MIC [1]: 27 µM (≈ 9.62 µg/mL)
- MIC [2]: 3.2 µM (≈ 1.14 µg/mL)

Structure (SMILES): O=[N+]([O-])c1cn2c(n1)OC[C@@H](OCCCC#Cc1ccc(-c3ccc(C(F)(F)F)nc3)cc1)C2
- MIC [1]: 63 µM (≈ 29.8 µg/mL)
- MIC [2]: 0.11 µM (≈ 0.052 µg/mL)

Structure (SMILES): O=[N+]([O-])c1cn2c(n1)OC[C@@H](Oc1ccc(-c3ccc(C(F)(F)F)nc3)nc1)C2
- MIC [1]: 17 µM (≈ 6.92 µg/mL)
- MIC [2]: 0.45 µM (≈ 0.183 µg/mL)

Structure (SMILES): O=[N+]([O-])c1cn2c(n1)OC[C@@H](OCCCC#Cc1ccc(-c3ccc(OC(F)F)cc3)cc1)C2
- MIC [1]: 39 µM (≈ 18.3 µg/mL)
- MIC [2]: 0.035 µM (≈ 0.0164 µg/mL)

Structure (SMILES): O=[N+]([O-])c1cn2c(n1)OC[C@@H](OCCOc1ncc(-c3ccc(F)cc3)cn1)C2
- MIC [1]: 13 µM (≈ 5.22 µg/mL)
- MIC [2]: 0.13 µM (≈ 0.0522 µg/mL)

Structure (SMILES): O=[N+]([O-])c1cn2c(n1)OC[C@@H](OCC#Cc1ccc(-c3ccc(F)cc3)cc1)C2
- MIC [1]: 2.7 µM (≈ 1.06 µg/mL)
- MIC [2]: 0.035 µM (≈ 0.0138 µg/mL)

Structure (SMILES): O=[N+]([O-])c1cn2c(n1)OC[C@@H](Oc1cc(-c3ccc(C(F)(F)F)cc3)ccn1)C2
- MIC [1]: 32 µM (≈ 13 µg/mL)
- MIC [2]: 0.88 µM (≈ 0.358 µg/mL)

Structure (SMILES): O=[N+]([O-])c1cn2c(n1)OC[C@@H](OCC#Cc1ccc(-c3ccc(C(F)(F)F)cc3)cc1)C2
- MIC [1]: 0.86 µM (≈ 0.381 µg/mL)
- MIC [2]: 0.22 µM (≈ 0.0975 µg/mL)

Structure (SMILES): O=[N+]([O-])c1cn2c(n1)OC[C@@H](Oc1ccnc(-c3ccc(C(F)(F)F)cc3)c1)C2
- MIC [1]: > 128 µM
- MIC [2]: 0.65 µM (≈ 0.264 µg/mL)

Structure (SMILES): O=[N+]([O-])c1cn2c(n1)OC[C@@H](OCC#Cc1ccc(-c3ccc(C(F)(F)F)nc3)nc1)C2
- MIC [1]: 3.7 µM (≈ 1.65 µg/mL)
- MIC [2]: 0.12 µM (≈ 0.0534 µg/mL)

Structure (SMILES): O=[N+]([O-])c1cn2c(n1)OC[C@@H](Oc1ccc(-c3ccc(F)cc3)cc1)C2
- MIC [1]: 1.2 µM (≈ 0.426 µg/mL)
- MIC [2]: 0.31 µM (≈ 0.11 µg/mL)

Structure (SMILES): O=[N+]([O-])c1cn2c(n1)OC[C@@H](OCC#Cc1ccc(-c3ccc(OC(F)F)cc3)cn1)C2
- MIC [1]: 0.44 µM (≈ 0.195 µg/mL)
- MIC [2]: 0.025 µM (≈ 0.0111 µg/mL)

Structure (SMILES): O=[N+]([O-])c1cn2c(n1)OC[C@@H](Oc1ncc(-c3ccc(F)cc3)cn1)C2
- MIC [1]: 7.4 µM (≈ 2.64 µg/mL)
- MIC [2]: 1.6 µM (≈ 0.572 µg/mL)

Structure (SMILES): CC(O[C@@H]1COc2nc([N+](=O)[O-])cn2C1)c1ccc(-c2ccc(C(F)(F)F)nc2)cc1 (stereo not given in full)
- MIC [1]: 4.3 µM (≈ 1.87 µg/mL)
- MIC [2]: 0.39 µM (≈ 0.169 µg/mL)

Structure (SMILES): O=[N+]([O-])c1cn2c(n1)OC[C@@H](OC/C=C/c1ccc(-c3ccc(C(F)(F)F)cc3)cc1)C2
- MIC [1]: 43 µM (≈ 19.2 µg/mL)
- MIC [2]: 0.045 µM (≈ 0.02 µg/mL)

Structure (SMILES): O=[N+]([O-])c1cn2c(n1)OC[C@@H](OCCCc1ccc(-c3ccc(C(F)(F)F)nc3)cc1)C2
- MIC [1]: 1.9 µM (≈ 0.852 µg/mL)
- MIC [2]: 0.07 µM (≈ 0.0314 µg/mL)

Structure (SMILES): O=[N+]([O-])c1cn2c(n1)OC[C@@H](Oc1ncc(-c3ccc(C(F)(F)F)nc3)cn1)C2
- MIC [1]: 17 µM (≈ 6.94 µg/mL)
- MIC [2]: 1.3 µM (≈ 0.531 µg/mL)

Structure (SMILES): O=[N+]([O-])c1cn2c(n1)OC[C@@H](OCC#Cc1cccc(-c3ccc(OC(F)F)cc3)c1)C2
- MIC [1]: 1.4 µM (≈ 0.618 µg/mL)
- MIC [2]: 0.09 µM (≈ 0.0397 µg/mL)

Structure (SMILES): O=[N+]([O-])c1cn2c(n1)OC[C@@H](Oc1ccc(-c3ccc(F)cc3)nc1)C2
- MIC [1]: 5.6 µM (≈ 2 µg/mL)
- MIC [2]: 0.5 µM (≈ 0.178 µg/mL)

Structure (SMILES): O=[N+]([O-])c1cn2c(n1)OC[C@@H](Oc1ncc(-c3ccc(C(F)(F)F)cc3)cn1)C2
- MIC [1]: 3 µM (≈ 1.22 µg/mL)
- MIC [2]: 0.21 µM (≈ 0.0855 µg/mL)

Structure (SMILES): O=[N+]([O-])c1cn2c(n1)OC[C@@H](OCC#Cc1ccc(-c3ccc(OC(F)F)cc3)cc1)C2
- MIC [1]: 1.8 µM (≈ 0.795 µg/mL)
- MIC [2]: 0.14 µM (≈ 0.0618 µg/mL)

Structure (SMILES): O=[N+]([O-])c1cn2c(n1)OC[C@@H](Oc1ccc(C(F)(F)F)cn1)C2
- MIC [1]: 16 µM (≈ 5.28 µg/mL)
- MIC [2]: 2.9 µM (≈ 0.958 µg/mL)

Structure (SMILES): O=[N+]([O-])c1cn2c(n1)OC[C@@H](OCCCc1ccc(-c3ccc(F)cc3)cc1)C2
- MIC [1]: 0.92 µM (≈ 0.366 µg/mL)
- MIC [2]: 0.045 µM (≈ 0.0179 µg/mL)

Structure (SMILES): O=[N+]([O-])c1cn2c(n1)OC[C@@H](Oc1ccc(-c3ccc(C(F)(F)F)nc3)cc1)C2
- MIC [1]: 4.1 µM (≈ 1.67 µg/mL)
- MIC [2]: 0.51 µM (≈ 0.207 µg/mL)

Structure (SMILES): O=[N+]([O-])c1cn2c(n1)OC[C@@H](Oc1ccc(-c3ccc(C(F)(F)F)cc3)nc1)C2
- MIC [1]: 1.2 µM (≈ 0.488 µg/mL)
- MIC [2]: 0.78 µM (≈ 0.317 µg/mL)

Structure (SMILES): O=[N+]([O-])c1cn2c(n1)OC[C@@H](OCC#Cc1cccc(-c3ccc(C(F)(F)F)nc3)c1)C2
- MIC [1]: 0.96 µM (≈ 0.427 µg/mL)
- MIC [2]: 0.12 µM (≈ 0.0533 µg/mL)

Structure (SMILES): O=[N+]([O-])c1cn2c(n1)OC[C@@H](Oc1ccnc(-c3ccc(F)cc3)c1)C2
- MIC [1]: 8.5 µM (≈ 3.03 µg/mL)
- MIC [2]: 0.67 µM (≈ 0.239 µg/mL)

Structure (SMILES): O=[N+]([O-])c1cn2c(n1)OC[C@@H](OCC#Cc1cccc(-c3ccc(F)cc3)c1)C2
- MIC [1]: 0.88 µM (≈ 0.346 µg/mL)
- MIC [2]: 0.04 µM (≈ 0.0157 µg/mL)

Structure (SMILES): O=[N+]([O-])c1cn2c(n1)OC[C@@H](OCCCC#Cc1ccc(-c3ccc(C(F)(F)F)cc3)cc1)C2
- MIC [1]: > 128 µM
- MIC [2]: 0.085 µM (≈ 0.0401 µg/mL)

Structure (SMILES): O=[N+]([O-])c1cn2c(n1)OC[C@@H](OC/C=C/c1ccc(-c3ccc(C(F)(F)F)nc3)cc1)C2
- MIC [1]: 15 µM (≈ 6.7 µg/mL)
- MIC [2]: 0.02 µM (≈ 0.00893 µg/mL)

Reference: ChEMBL document CHEMBL1833943, “Synthesis and structure-activity relationships of varied ether linker analogues of the antitubercular drug (6S)-2-nitro-6-{[4-(trifluoromethoxy)benzyl]oxy}-6,7-dihydro-5h-imidazo[2,1-b][1,3]oxazine (PA-824)” (J Med Chem, 2011)
